28 compounds from patent US20160287589A1, “SUBSTITUTED-IMIDAZOPYRIDAZINES” (BAYER PHARMA AKTIENGESELLSCHAFT, priority 2013, published 2016) can be followed below.

For experiment [1], the target named is T1, MKNK1 (Homo sapiens, UniProt Q9BUB5, T385D).
T1 construct: GST (N); purchased Carna Biosciences 02-145; host or cells: insect cells (baculovirus expression system)
The experiment in a line: MKNK1 kinase assay (MKNK1 TR-FRET assay). Type of experiment: biochemical. The following applies: Table 1b; 10 μM ATP, 15 min preincubation. For orientation: Time-resolved FRET reads energy transfer from a long-lived donor to a nearby acceptor.

Experiment [2] concerns the target T1, MKNK1. The experiment in a line: MKNK1 kinase high ATP assay (TR-FRET-based). Format: biochemical. As to conditions: Table 2b; 2 mM ATP, 15 min preincubation. In short, it runs like this: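 GST-tagged full-length human MKNK1 (aa 1-424, T344D) from insect cells, preincubated with compound 15 min at 22 °C. Reaction 30 min at 22 °C with 2 mM ATP and 0.06 μM biotinylated peptide in HEPES pH 7.5, Mg2+, DTT. Phosphopeptide detected by TR-FRET (665/622 ratio) with anti-pS6 (pSer236) antibody; normalised to no-inhibitor and no-enzyme controls.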

T1 sequence (Q9BUB5 1-424 isoform Q9BUB5-2 T344D): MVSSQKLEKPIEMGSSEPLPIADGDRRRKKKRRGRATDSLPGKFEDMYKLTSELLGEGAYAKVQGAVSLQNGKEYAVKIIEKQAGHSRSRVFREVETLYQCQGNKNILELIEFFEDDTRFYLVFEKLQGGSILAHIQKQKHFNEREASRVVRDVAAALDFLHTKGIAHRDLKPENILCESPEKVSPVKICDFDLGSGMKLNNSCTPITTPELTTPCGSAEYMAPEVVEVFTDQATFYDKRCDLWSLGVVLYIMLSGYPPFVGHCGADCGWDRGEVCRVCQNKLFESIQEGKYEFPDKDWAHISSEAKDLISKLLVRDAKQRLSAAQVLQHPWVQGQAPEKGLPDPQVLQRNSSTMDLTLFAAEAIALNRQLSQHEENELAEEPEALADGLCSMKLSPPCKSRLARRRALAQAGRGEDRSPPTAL

Take `COC[C@H]1CCCN1c1cccc2oc(-c3cnc4ccc(OC[C@H]5CNCCO5)nn34)cc12` [II-7, 3-{4-[(2R)-2-(Methoxymethyl)pyrrolidin-1-yl]-1-benzofuran-2-yl}-6-[(2R)-morpholin-2-ylmethoxy]imidazo[1,2-b]pyridazine]: the half-inhibitory concentration (IC50) (in general, the concentration at which inhibition is half-maximal) in experiment [1] worked out at 6.3 nM; in experiment [2], 4.2 nM.
The like results for `COC[C@H]1CCCN1c1cccc2oc(-c3cnc4ccc(OC[C@H](C)N)nn34)cc12` [II-8, (2S)-1-[(3-{4-[(2R)-2-(Methoxymethyl)pyrrolidin-1-yl]-1-benzofuran-2-yl}-imidazo[1,2-b]pyridazin-6-yl)oxy]propan-2-amine] were, in that order, 2 nM and 2.7 nM.
For `COC[C@H]1CCCN1c1cccc2oc(-c3cnc4ccc(OC[C@H]5CCC(=O)N5)nn34)cc12` [II-9, (5R)-5-{[(3-{4-[(2R)-2-(Methoxymethyl)pyrrolidin-1-yl]-1-benzofuran-2-yl}imidazo[1,2-b]pyridazin-6-yl)oxy]methyl}pyrrolidin-2-one], in that order: 0.8 nM and 0.6 nM.
On to `COC[C@H]1CCCN1c1cccc2oc(-c3cnc4ccc(OC)nn34)cc12` [II-10, 6-Methoxy-3-{4-[(2R)-2-(methoxymethyl)pyrrolidin-1-yl]-1-benzofuran-2-yl}-imidazo[1,2-b]pyridazine], for which the IC50 worked out at 6.5 nM in experiment [1] and 5 nM in experiment [2].
On to `COC[C@H]1CCCN1c1cccc2oc(-c3cnc4ccc(O[C@H]5C[C@H](N)C5)nn34)cc12` [II-11, trans-3-[(3-{4-[(2R)-2-(Methoxymethyl)pyrrolidin-1-yl]-1-benzofuran-2-yl}imidazo[1,2-b]pyridazin-6-yl)oxy]cyclobutanamine], for which the IC50 in experiment [1] was 2.4 nM; in experiment [2] it was 3.5 nM.
As for `CS(=O)(=O)CCCOc1ccc2ncc(-c3cc4c(N5CCN(c6ccccc6)CC5)cccc4o3)n2n1` [II-12, 6-[3-(Methylsulfonyl)propoxy]-3-[4-(4-phenylpiperazin-1-yl)-1-benzofuran-2-yl]-imidazo[1,2-b]pyridazine], the IC50 in experiment [1] turned out to be 24 nM; in experiment [2] it was 67 nM.
For `c1cc(N2CCOCC2)c2cc(-c3cnc4ccc(O[C@@H]5CCNC5)nn34)oc2c1` [II-13, 3-[4-(Morpholin-4-yl)-1-benzofuran-2-yl]-6-[(3R)-pyrrolidin-3-yloxy]imidazo[1,2-b]pyridazine], in that order: 39 nM and 58 nM.
The like results for `O=C1CC[C@H](COc2ccc3ncc(-c4cc5c(N6CCN(c7ccccc7)CC6)cccc5o4)n3n2)N1` [II-14, (5R)-5-[({3-[4-(4-Phenylpiperazin-1-yl)-1-benzofuran-2-yl]imidazo[1,2-b]-pyridazin-6-yl}oxy)methyl]pyrrolidin-2-one] were, in that order, 7 nM and 27 nM.
Consider `C[C@H](N)COc1ccc2ncc(-c3cc4c(N5CCN(c6ccccc6)CC5)cccc4o3)n2n1` [II-15, (2S)-1-({3-[4-(4-Phenylpiperazin-1-yl)-1-benzofuran-2-yl]imidazo[1,2-b]-pyridazin-6-yl}oxy)propan-2-amine], for which the results for the IC50 in experiment [1] and in experiment [2] were 59 nM and 137 nM, respectively.
For `N[C@H]1C[C@H](Oc2ccc3ncc(-c4cc5c(N6CCN(c7ccccc7)CC6)cccc5o4)n3n2)C1` [II-16, trans-3-({3-[4-(4-Phenylpiperazin-1-yl)-1-benzofuran-2-yl]imidazo[1,2-b]-pyridazin-6-yl}oxy)cyclobutanamine], in that order: 13 nM and 15 nM.
The like results for `CCN(CCOC)c1cccc2oc(-c3cnc4ccc(OC[C@H]5CCC(=O)N5)nn34)cc12` [II-17, (5R)-5-{[(3-{4-[Ethyl(2-methoxyethyl)amino]-1-benzofuran-2-yl}imidazo[1,2-b]-pyridazin-6-yl)oxy]methyl}pyrrolidin-2-one] were, in that order, 0.6 nM and 0.5 nM.
In the case of `CN1CCN(c2cccc3oc(-c4cnc5ccc(OC[C@H]6CCC(=O)N6)nn45)cc23)CC1` [II-18, (5R)-5-[({3-[4-(4-Methylpiperazin-1-yl)-1-benzofuran-2-yl]imidazo[1,2-b]-pyridazin-6-yl}oxy)methyl]pyrrolidin-2-one], the concentration for half-maximal inhibition (IC50) in experiment [1] and in experiment [2] was 0.4 nM throughout.
On to `O=C1CC[C@H](COc2ccc3ncc(-c4cc5c(N6CCNCC6)cccc5o4)n3n2)N1` [II-19, (5R)-5-[({3-[4-(Piperazin-1-yl)-1-benzofuran-2-yl]imidazo[1,2-b]pyridazin-6-yl}-oxy)methyl]pyrrolidin-2-one], for which the half-maximal inhibitory concentration (IC50) in experiment [1] and in experiment [2] was 0.4 nM in each case.
Take `CS(=O)(=O)CCCOc1ccc2ncc(-c3cc4c(N5CCNCC5)cccc4o3)n2n1` [II-20, 6-[3-(Methylsulfonyl)propoxy]-3-[4-(piperazin-1-yl)-1-benzofuran-2-yl]imidazo-[1,2-b]pyridazine]: the IC50 was found to be 0.5 nM in experiment [1] and 0.8 nM in experiment [2].
The like results for `COc1ccc2ncc(-c3cc4c(N5CCNCC5)cccc4o3)n2n1` [II-21, 6-Methoxy-3-[4-(piperazin-1-yl)-1-benzofuran-2-yl]imidazo[1,2-b]pyridazine] were, in that order, 0.3 nM and 0.3 nM.
The like results for `COc1ccc2ncc(-c3cc4c(N5CCN(c6ccccc6)CC5)cccc4o3)n2n1` [II-22, 6-Methoxy-3-[4-(4-phenylpiperazin-1-yl)-1-benzofuran-2-yl]imidazo[1,2-b]-pyridazine] were, in that order, 371 nM and 422 nM.
The like results for `CCN(CCOC)c1cccc2oc(-c3cnc4ccc(OCCCS(C)(=O)=O)nn34)cc12` [II-23, N-Ethyl-N-(2-methoxyethyl)-2-{6-[3-(methylsulfonyl)propoxy]imidazo[1,2-b]-pyridazin-3-yl}-1-benzofuran-4-amine] were, in that order, 2 nM and 1.9 nM.
As for `CCN(CCOC)c1cccc2oc(-c3cnc4ccc(OC[C@H](C)N)nn34)cc12` [II-24, 2-(6-{[(2S)-2-Aminopropyl]oxy}imidazo[1,2-b]pyridazin-3-yl)-N-ethyl-N-(2-methoxyethyl)-1-benzofuran-4-amine], the results for the IC50 in experiment [1] and in experiment [2] were 3.3 nM and 3.2 nM, respectively.
Turning to `COC[C@H]1CCCN1c1cccc2oc(-c3cnc4ccc(OC[C@@H](C)N)nn34)cc12` [II-26, (2R)-1-[(3-{4-[(2R)-2-(Methoxymethyl)pyrrolidin-1-yl]-1-benzofuran-2-yl}imidazo[1,2-b]pyridazin-6-yl)oxy]propan-2-amine], the half-maximal inhibitory concentration (IC50) in experiment [1] and in experiment [2] was 0.8 nM in each case.
`C[C@H]1CN(c2cccc3oc(-c4cnc5ccc(OC[C@H]6CCC(=O)N6)nn45)cc23)CCO1` [II-27, (5R)-5-{[(3-{4-[(2S)-2-methylmorpholin-4-yl]-1-benzofuran-2-yl}imidazo[1,2-b]pyridazin-6-yl)oxy]methyl}pyrrolidin-2-one]: the 50% inhibitory concentration (IC50) in experiment [1] was 2.2 nM; in experiment [2], 5.7 nM.
For `COc1ccc2ncc(-c3cc4c(N5CCNC[C@@H]5C)cccc4o3)n2n1` [II-28, 6-methoxy-3-{4-[(2S)-2-methylpiperazin-1-yl]-1-benzofuran-2-yl}imidazo[1,2-b]pyridazine], the IC50 was determined as 5.1 nM in experiment [1] and 0.7 nM in experiment [2].
Consider `C[C@H]1CNCCN1c1cccc2oc(-c3cnc4ccc(OCC(F)(F)F)nn34)cc12` [II-29, 3-{4-[(2S)-2-methylpiperazin-1-yl]-1-benzofuran-2-yl}-6-(2,2,2-trifluoroethoxy)im-idazo[1,2-b]pyridazine], for which the IC50 is 5.4 nM in experiment [1] and 2.7 nM in experiment [2].
Consider `C[C@H]1CNCCN1c1cccc2oc(-c3cnc4ccc(OC[C@H]5CCC(=O)N5)nn34)cc12` [II-30, (5R)-5-{[(3-{4-[(2S)-2-methylpiperazin-1-yl]-1-benzofuran-2-yl}imidazo[1,2-b]pyridazin-6-yl)oxy]methyl}pyrrolidin-2-one], for which the half-maximal inhibitory concentration (IC50) in experiment [1] amounted to 2.3 nM; in experiment [2] it was 0.6 nM.
The like results for `C[C@H](N)COc1ccc2ncc(-c3cc4c(N5CCOC[C@@H]5C)cccc4o3)n2n1` [II-31, (2S)-1-[(3-{4-[(3S)-3-methylmorpholin-4-yl]-1-benzofuran-2-yl}imidazo[1,2-b]pyridazin-6-yl)oxy]propan-2-amine] were, in that order, 24.2 nM and 35.5 nM.
For `C[C@H]1COCCN1c1cccc2oc(-c3cnc4ccc(OC[C@H]5CCC(=O)N5)nn34)cc12` [II-32, (5R)-5-{[(3-{4-[(3S)-3-methylmorpholin-4-yl]-1-benzofuran-2-yl}imidazo[1,2-b]pyridazin-6-yl)oxy]methyl}pyrrolidin-2-one], in that order: 4.4 nM and 8.1 nM.
For `C[C@H]1COCCN1c1cccc2oc(-c3cnc4ccc(OC[C@@H]5CCC(=O)N5)nn34)cc12` [II-33, (5S)-5-{[(3-{4-[(3S)-3-methylmorpholin-4-yl]-1-benzofuran-2-yl}imidazo[1,2-b]pyridazin-6-yl)oxy]methyl}pyrrolidin-2-one], in that order: 16.3 nM and 24.4 nM.
With `C[C@H]1COCCN1c1cccc2oc(-c3cnc4ccc(O[C@H]5C[C@H](N)C5)nn34)cc12` [II-34, trans-3-[(3-{4-[(3S)-3-methylmorpholin-4-yl]-1-benzofuran-2-yl}imidazo[1,2-b]pyridazin-6-yl)oxy]cyclobutanamine], the half-inhibitory concentration (IC50) came out at 26.7 nM in experiment [1] and 43.2 nM in experiment [2].
With `C[C@@H](N)COc1ccc2ncc(-c3cc4c(N5CCOC(C)(C)C5)cccc4o3)n2n1` [II-35, (2R)-1-({3-[4-(2,2-dimethylmorpholin-4-yl)-1-benzofuran-2-yl]imidazo[1,2-b]pyridazin-6-yl}oxy)propan-2-amine], the IC50 in experiment [1] amounted to 16.7 nM; in experiment [2], 49.6 nM.
